Test results: patent publication US12286439B2, “Inhibitors of ERK nuclear translocation” (Yeda Research and Development Co. Ltd., priority 2018, dated 2025)
*: point of attachment. Myristoyl = CCCCCCCCCCCCCC(=O)*

Tests used:
PC3 cells = assay: Dose-response analysis, PC3 cells; assay type: cell-based; conditions: 10 μM, 72 hours
Procedure: (§1) FIG. 15A presents dose response curves of compounds C17, D3, D11 and D14 on 8 cancer cells. Five melanoma cell lines (A2185, A2352, A2024, A2058 and LOX-IMVI), HeLa, HCT-116 and PC3 cells were grown in 1% FCS media containing either DMSO (0.1%), EPE peptide (10 μM), or Compounds C17, D3, D11, D14 at the indicated concentrations, for 72 hours. Viable cells were quantified by staining with methylene blue. Data presented as percentage of DMSO control ±SE of triplicates. […] IC50 values were calculated by interpolation in the curves in FIG. 15A. […] Bar graphs represent average viability respect to DMSO control ±SE of triplicates.
(§2) Cell Viability (IC50) Assay:
(§3) Cells were seeded at a density of 4000 cells per well into 96-well plates in complete medium. After 24 hours, medium was replaced by 1% FCS (fetal calf serum) containing appropriate treatments. Fresh medium containing the same agents was replaced every day. After 96 hours, cell viability was assessed using the CellTiter-Glo reagent (Promega; Madison, WI). IC50 values were determined using GraphPad Prism.

A2058 cells = assay: Dose-response analysis, A2058 cells; assay type: cell-based; conditions: 10 μM
Procedure: as §1, §2, §3

[1] = tested on: ERK1/2 nuclear translocation; assay: Determination of ERK1/2 localization by fluorescence microscopy after TPA stimulation; assay type: cell-based; conditions: 10 μM, TPA 100 nM, 15 minutes
Procedure: Determination of Protein Localization by Fluorescence Microscopy:
Indicated cells were seeded on coverslips (coated with 0.001% w/v poly-L-lysine or not, depending on the cell line) at 50% confluency. After the indicated treatment, cells were fixed in 4% paraformaldehyde/PBS for 20 minutes on an ice surface, permeabilized with 0.1% Triton X-100/PBS for 5 minutes at 23° C., then blocked in 2% BSA/PBS for 30 minutes at 23° C. The fixed cells were sequentially incubated with appropriate antibodies (in 2% BSA/PBS, 1.5 hour), washed 3 times with PBS^−/−, and followed by incubation with either Cy-2-conjugated or rhodamine-conjugated secondary antibodies (1:200) and with DAPI ([…]; 1:100) in 2% BSA/PBS for 45 minutes. Slides were analyzed and photographed by a fluorescence microscope (Olympus BX51, ×40). Background correction, and contrast adjustment of raw data images were performed using Photoshop (Adobe, CA, USA).
The effect of Z56 was compared with that of the inhibitory effect of EPE peptide on nuclear translocation of ERK1/2.
The effects of the compounds on ERK1/2 nuclear translocation were evaluated in three cell lines (HeLa cells and two melanoma cell lines, A2185 and A2352), by treating the cells with each compound for two hours, and determining nuclear translocation using fluorescent anti-ERK antibodies, according to procedures described hereinabove.

[2] = tested on: Panc-1, AsPC-1, CFPAC-1, MIA PaCa-2, Capan-1, Capan-2 and BxPC-3 pancreatic cancer cells; assay: Viability assay (methylene blue), pancreatic cancer cell lines; assay type: cell-based; conditions: 10 μM, 72 hours
Procedure: FIGS. 6A and 6B present data showing that Compound Z56 prevents proliferation of pancreatic cancer cells. […] Panc-1, AsPC-1, CFPAC-1, Mia PaCa-2, Capan-1, Capan-2 (Ras-transformed) and BxPC-3 (Ras-wild type) pancreatic cancer cells were treated with either EPE peptide (10 μM; middle bars) or Z56 (3 μM; right bars) or DMSO control (0.1%; left bars) in 1% FCS for 72 hours. […] Panc-1, AsPC-1, BxPC-3 and Mia PaCa-2 cells grown in 1% FCS medium containing either EPE peptide (10 μM), 56 (3 μM), PLX4032 (1 μM), PD184352 (5 μM) or DMSO control (0.1%). The graphs present the kinetics of cell proliferation at the indicated times after the treatment started. Quantification of all viable cells was done by methylene blue and repeated 3 times in triplicates. All results presented as a fold change of the initial cell number and represent averages ±SE.
(§4) Cells were seeded at low confluence into 24, 48 or 96-well plates in complete medium. After 24 hours, medium was replaced by 1% FCS (fetal calf serum) containing appropriate treatments. Fresh medium containing the same agents was replaced every day. After 72 or 96 hours of treatment, cells were fixed with 4% formaldehyde overnight at 23° C., washed once with 0.1 M borate buffer (pH 8.5) for 10 minutes, and stained with of 1% methylene blue in 0.1 M borate buffer (pH 8.5) for 30 minutes. Excess stain was washed out with distilled water. Color was extracted by adding 0.1 M HCl (3 hours, 23° C.), and absorbance measured at 595 nm in an ELISA reader. For time course experiments, attached cells were fixed and measured at 0, 24, 48, 72 and 96 hours. For dose-response experiments, cells were treated with indicated concentrations of reagent, fixed and stained after 72 hours as above.
Activating mutations in Ras are found in more than 95% of pancreatic cancers where signaling through both Raf and Akt pathway drives cancer progression [Campbell et al., Cancer Res 2007, 67:2098-2106]. However, no effective treatments that target this mutant protein have reached the clinic to date, and pancreatic ductal adenocarcinoma remains an almost universally fatal disease [Bryant et al., Trends Biochem Sci 2014, 39:91-100]. Therefore, treating these pancreatic cancer cells downstream of Ras, without overactivating the Akt pathway, should be at least partially beneficial. The effect of Compound Z56 (and EPE peptide) on cell viability of Ras-transformed (and Ras-wild type) pancreatic cancer cells was determined, using a variety of cell lines.
The effects of Compound Z56 on the viability of pancreatic cancer cell lines at various times after treatment was compared with those of PLX4032 (a B-Raf inhibitor) and PD184352 (a MEK1/2 inhibitor).

[3] = tested on: HeLa, A2352, A2185, LOX-IMVI, A4132, A2024, MDA-MB-231, PC3, A2058 and MCF7 cells; assay: Viability assay (methylene blue), ten cancer cell lines; assay type: cell-based; conditions: 10 μM, 72 hours, 1% FCS
Procedure: Ten cancer cell lines were treated with either EPE peptide (10 μM; middle bars) or Compound Z56 (3 μM; right bars) or DMSO control (0.1%; left bars) in 1% FCS (fetal calf serum) for 72 hours.
A3252 and A2058 cells were treated either with EPE peptide (10 μM), Z56 (1, 3 or 10 μM) or DMSO control (0.1%). The graphs present the kinetics of cell proliferation at the indicated times. Viable cells were quantified by staining with methylene blue. All results were presented as a fold change of the initial cell number and represent averages ±SE of 3 experiments in triplicate.
as §4, with “For dose-response experiments, cells were treated with indicated concentrations of reagent, fixed and stained after 72 hours as above.” left out

[4] = tested on: BRAF-mutant, NRAS-mutant and NF1-mutant melanomas; conditions: Arafeh et al., Sci Rep 2017; cited from earlier work
[5] = molecular target: interaction of importin7 and ERK1/2 (Homo sapiens, UniProt O95373); conditions: Plotnikov et al., Nat Commun 2015; cited from earlier work
Chain of interaction of importin7 and ERK1/2 (O95373 whole entry): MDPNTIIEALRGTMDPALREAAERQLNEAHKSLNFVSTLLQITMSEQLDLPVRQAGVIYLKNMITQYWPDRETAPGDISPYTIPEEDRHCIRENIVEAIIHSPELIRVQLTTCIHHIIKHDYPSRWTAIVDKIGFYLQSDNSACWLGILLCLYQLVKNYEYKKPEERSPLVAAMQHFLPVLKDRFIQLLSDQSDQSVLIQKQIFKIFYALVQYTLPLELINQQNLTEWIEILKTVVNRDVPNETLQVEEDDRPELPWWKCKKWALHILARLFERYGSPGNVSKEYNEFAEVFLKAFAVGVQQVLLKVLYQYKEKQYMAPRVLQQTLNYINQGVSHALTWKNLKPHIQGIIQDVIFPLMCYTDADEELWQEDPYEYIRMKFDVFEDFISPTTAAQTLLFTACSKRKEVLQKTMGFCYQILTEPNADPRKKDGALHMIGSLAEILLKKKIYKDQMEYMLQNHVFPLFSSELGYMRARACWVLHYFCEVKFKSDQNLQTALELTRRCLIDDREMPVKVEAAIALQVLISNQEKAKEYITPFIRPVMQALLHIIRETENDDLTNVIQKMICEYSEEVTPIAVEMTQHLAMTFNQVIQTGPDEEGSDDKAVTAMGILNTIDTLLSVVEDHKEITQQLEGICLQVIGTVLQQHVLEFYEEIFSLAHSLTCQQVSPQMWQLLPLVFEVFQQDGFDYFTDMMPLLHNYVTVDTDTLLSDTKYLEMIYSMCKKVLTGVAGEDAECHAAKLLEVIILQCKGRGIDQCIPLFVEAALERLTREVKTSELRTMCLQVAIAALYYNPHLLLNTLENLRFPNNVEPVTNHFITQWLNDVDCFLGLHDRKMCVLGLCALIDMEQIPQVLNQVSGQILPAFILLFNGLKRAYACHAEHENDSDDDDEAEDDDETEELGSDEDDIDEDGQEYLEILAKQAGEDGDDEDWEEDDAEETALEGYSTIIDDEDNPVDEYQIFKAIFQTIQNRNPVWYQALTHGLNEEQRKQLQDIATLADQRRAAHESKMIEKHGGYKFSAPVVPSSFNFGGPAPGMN

## EPE peptide: peptide GQLNHILGILGEPEQEDL (SEQ ID NO: 1) conjugated at N-terminus to myristic acid and C-terminal amidated (Myristoyl-GQLNHILGILGEPEQEDL-NH2; SMILES CCCCCCCCCCCCCC(=O)NCC(=O)N[C@@H](CCC(N)=O)C(=O)N[C@@H](CC(C)C)C(=O)N[C@@H](CC(N)=O)C(=O)N[C@@H](Cc1c[nH]cn1)C(=O)N[C@H](C(=O)N[C@@H](CC(C)C)C(=O)NCC(=O)N[C@H](C(=O)N[C@@H](CC(C)C)C(=O)NCC(=O)N[C@@H](CCC(=O)O)C(=O)N1CCC[C@H]1C(=O)N[C@@H](CCC(=O)O)C(=O)N[C@@H](CCC(N)=O)C(=O)N[C@@H](CCC(=O)O)C(=O)N[C@@H](CC(=O)O)C(=O)N[C@@H](CC(C)C)C(N)=O)[C@@H](C)CC)[C@@H](C)CC) [reference compound]
PC3 cells
  viability of PC3 cells: only a very modest effect
A2058 cells
  viability of BRAF melanoma cells A2058: lack of effect
[1]; 2 hours pretreatment, MCF7, A2352, HB2 and HeLa cells
  degree of ERK1/2 nuclear localization induced by TPA (percentage of cells with nuclear ERK1/2 staining): phenotype similar to the basal state
[1]; 2 hours, A2185 and A2352 cells
  nuclear accumulation of ERK1/2 upon TPA stimulation: inhibited
[2]; 4 Ras-transformed pancreatic cell lines other than Panc-1 and AsPC-1
  proliferation/viability: no major effect
[2]; Ras-wild type BxPC-3 cells
  reduction of cell proliferation relative to control: 50%
[2]; only 2 of the 7 tested cell lines (Panc-1 and AsPC-1)
  cell viability and apoptosis: reduced cell viability and induced apoptosis
[3]
  proliferation of PC3, A2058 and MCF7 cells: not significantly affected
[3]; HeLa, A2352, A2185, LOX-IMVI, A4132, Z2024, MDA-MB-231
  apoptosis / proliferation of EPE-sensitive cell lines: induced apoptosis
[4]
  combination with the MEK inhibitor trametinib, viability of NRAS-mutant melanomas: exhibited synergy
  viability of BRAF-mutant, NRAS-mutant and NF1-mutant melanomas: significantly reduced the viability
[5]
  interaction of importin7 and ERK1/2 and nuclear translocation of ERK1/2: blocks the interaction of importin7 and ERK1/2
